# The source made the active and inactive calls. No rule for the calls is given here.
# Tested on: CCRIS mutagenicity, Ames/micronucleus/aberration tests
# Assay: CCRIS mutagenicity studies
# [1] = Test System: AMES SALMONELLA TYPHIMURIUM, Strain/Indicator: TA98, Metabolic Activation: NONE, Method: STANDARD PLATE
# [2] = Test System: AMES SALMONELLA TYPHIMURIUM, Strain/Indicator: TA100, Metabolic Activation: NONE, Method: STANDARD PLATE
smiles,measurement,setting,value
O=c1c(O)c(-c2ccc(O)cc2)oc2cc(O)cc(O)c12,mutagenic call,"Test System: AMES SALMONELLA TYPHIMURIUM, Strain/Indicator: TA97A, Metabolic Activation: NONE, Method: STANDARD PLATE",inactive; negative
same,mutagenic call,"Test System: AMES SALMONELLA TYPHIMURIUM, Strain/Indicator: TA97A, Metabolic Activation: RAT, LIVER, S-9, AROCLOR 1254, Method: STANDARD PLATE",active; positive
same,mutagenic call,"Test System: AMES SALMONELLA TYPHIMURIUM, Strain/Indicator: TA98, Metabolic Activation: HAMSTER, LIVER, S-9, AROCLOR 1254, Method: STANDARD PLATE",active; positive
same,mutagenic call,[1],inactive; negative
same,mutagenic call,"Test System: AMES SALMONELLA TYPHIMURIUM, Strain/Indicator: TA98, Metabolic Activation: RAT, LIVER, S-9, 5,6-BENZOFLAVONE AND/OR SODIUM PHENOBARBITAL, Method: PREINCUBATION",active; positive
same,mutagenic call,"Test System: AMES SALMONELLA TYPHIMURIUM, Strain/Indicator: TA98, Metabolic Activation: RAT, LIVER, S-9, AROCLOR 1254, Method: STANDARD PLATE",active; positive
same,mutagenic call,"Test System: AMES SALMONELLA TYPHIMURIUM, Strain/Indicator: TA98, Metabolic Activation: RAT, LIVER, S-105, 5,6-BENZOFLAVONE AND/OR SODIUM PHENOBARBITAL, Method: PREINCUBATION",inactive; negative
same,mutagenic call,[2],inactive; negative
same,mutagenic call,"Test System: AMES SALMONELLA TYPHIMURIUM, Strain/Indicator: TA102, Metabolic Activation: NONE, Method: STANDARD PLATE",inactive; negative
same,mutagenic call,"Test System: AMES SALMONELLA TYPHIMURIUM, Strain/Indicator: TA102, Metabolic Activation: RAT, LIVER, S-9, AROCLOR 1254, Method: STANDARD PLATE",active; positive
same,mutagenic call,"Test System: AMES SALMONELLA TYPHIMURIUM, Strain/Indicator: TA1535, Metabolic Activation: HAMSTER, LIVER, S-9, AROCLOR 1254, Method: STANDARD PLATE",inactive; negative
same,mutagenic call,"Test System: AMES SALMONELLA TYPHIMURIUM, Strain/Indicator: TA1535, Metabolic Activation: NONE, Method: STANDARD PLATE",inactive; negative
same,mutagenic call,"Test System: AMES SALMONELLA TYPHIMURIUM, Strain/Indicator: TA1535, Metabolic Activation: RAT, LIVER, S-9, AROCLOR 1254, Method: STANDARD PLATE",inactive; negative
same,mutagenic call,"Test System: AMES SALMONELLA TYPHIMURIUM, Strain/Indicator: TA1537, Metabolic Activation: HAMSTER, LIVER, S-9, AROCLOR 1254, Method: STANDARD PLATE",active; positive
same,mutagenic call,"Test System: AMES SALMONELLA TYPHIMURIUM, Strain/Indicator: TA1537, Metabolic Activation: NONE, Method: STANDARD PLATE",inactive; negative
same,mutagenic call,"Test System: AMES SALMONELLA TYPHIMURIUM, Strain/Indicator: TA1537, Metabolic Activation: RAT, LIVER, S-9, AROCLOR 1254, Method: STANDARD PLATE",active; positive
same,mutagenic call,"Test System: MOUSE LYMPHOMA, Strain/Indicator: L5178Y (TK+/TK-), Metabolic Activation: NONE, Method: SUSPENSION/PLATE",active; positive. reevaluation of results: positive
same,mutagenic call,"Test System: MOUSE LYMPHOMA, Strain/Indicator: L5178Y (TK+/TK-), Metabolic Activation: RAT, LIVER, S-9, AROCLOR 1254, Method: SUSPENSION/PLATE",active; positive. reevaluation of results: equivocal
Oc1cc(Cl)ccc1Oc1ccc(Cl)cc1Cl,mutagenic call,"End Point: In vitro chromosomal aberrations, Test System: Chinese hamster ovary strain K1-BH4 cells, Metabolic Activation: None",inactive; negative
same,mutagenic call,"End Point: In vitro chromosomal aberrations, Test System: Chinese hamster ovary strain K1-BH4 cells, Metabolic Activation: S-9",inactive; negative
same,mutagenic call,"End Point: In vivo chromosomal aberrations, Test System: Bone marrow, Species: Rat, Strain/Sex: Wistar/Female, Route: Gavage",inactive; negative
same,mutagenic call,"End Point: In vivo chromosomal aberrations, Test System: Bone marrow, Species: Rat, Strain/Sex: Wistar/Male, Route: Gavage",inactive; negative
same,mutagenic call,"End Point: In vivo micronucleus, Test System: Bone marrow, Species: Mouse, Strain/Sex: CD-1 SPF Swiss albino, Route: Gavage",inactive; negative
same,mutagenic call,"Test System: Ames Salmonella typhimurium, Strain/Indicator: TA98, Metabolic Activation: None, Method: Preincubation",inactive; negative
same,mutagenic call,"Test System: Ames Salmonella typhimurium, Strain/Indicator: TA98, Metabolic Activation: None, Method: Standard Plate",inactive; negative
same,mutagenic call,"Test System: Ames Salmonella typhimurium, Strain/Indicator: TA98, Metabolic Activation: S-9, Method: Preincubation",inactive; negative
same,mutagenic call,"Test System: Ames Salmonella typhimurium, Strain/Indicator: TA98, Metabolic Activation: S-9, Method: Standard Plate",inactive; negative
same,mutagenic call,"Test System: Ames Salmonella typhimurium, Strain/Indicator: TA100, Metabolic Activation: None, Method: Preincubation",inactive; negative
same,mutagenic call,"Test System: Ames Salmonella typhimurium, Strain/Indicator: TA100, Metabolic Activation: None, Method: Standard Plate",inactive; negative
same,mutagenic call,"Test System: Ames Salmonella typhimurium, Strain/Indicator: TA100, Metabolic Activation: S-9, Method: Preincubation",inactive; negative
same,mutagenic call,"Test System: Ames Salmonella typhimurium, Strain/Indicator: TA100, Metabolic Activation: S-9, Method: Standard Plate",inactive; negative
same,mutagenic call,"Test System: Ames Salmonella typhimurium, Strain/Indicator: TA 1535, Metabolic Activation: None, Method: Preincubation",inactive; negative
same,mutagenic call,"Test System: Ames Salmonella typhimurium, Strain/Indicator: TA 1535, Metabolic Activation: None, Method: Standard Plate",inactive; negative
same,mutagenic call,"Test System: Ames Salmonella typhimurium, Strain/Indicator: TA 1535, Metabolic Activation: S-9, Method: Preincubation",inactive; negative
same,mutagenic call,"Test System: Ames Salmonella typhimurium, Strain/Indicator: TA 1535, Metabolic Activation: S-9, Method: Standard Plate",inactive; negative
same,mutagenic call,"Test System: Ames Salmonella typhimurium, Strain/Indicator: TA1537, Metabolic Activation: None, Method: Preincubation",inactive; negative
same,mutagenic call,"Test System: Ames Salmonella typhimurium, Strain/Indicator: TA1537, Metabolic Activation: None, Method: Standard Plate",inactive; negative
same,mutagenic call,"Test System: Ames Salmonella typhimurium, Strain/Indicator: TA1537, Metabolic Activation: S-9, Method: Preincubation",inactive; negative
same,mutagenic call,"Test System: Ames Salmonella typhimurium, Strain/Indicator: TA1537, Metabolic Activation: S-9, Method: Standard Plate",inactive; negative
same,mutagenic call,"Test System: Ames Salmonella typhimurium, Strain/Indicator: TA1538, Metabolic Activation: None, Method: Standard Plate",inactive; negative
same,mutagenic call,"Test System: Ames Salmonella typhimurium, Strain/Indicator: TA1538, Metabolic Activation: S-9, Method: Standard Plate",inactive; negative
COc1ccc(/C(=C/C(=O)N2CCOCC2)c2ccc(F)cc2)cc1OC,mutagenic call,"End Point: IN VITRO CHROMOSOMAL ABERRATIONS, Test System: CHINESE HAMSTER LUNG (CHL) CELLS, Metabolic Activation: NONE",inactive; negative
same,mutagenic call,"End Point: IN VITRO CHROMOSOMAL ABERRATIONS, Test System: CHINESE HAMSTER LUNG (CHL) CELLS, Metabolic Activation: S-9",active; positive (structural changes)
CCOP(=S)(OCC(C)C)SCCl (configuration not stated),mutagenic call,"Test System: AMES SALMONELLA TYPHIMURIUM, Strain/Indicator: TA98, Metabolic Activation: NONE",inactive; negative
same,mutagenic call,[1],inactive; negative
same,mutagenic call,"Test System: AMES SALMONELLA TYPHIMURIUM, Strain/Indicator: TA98, Metabolic Activation: RAT, LIVER, S-9, SODIUM PHENOBARBITAL, Method: STANDARD PLATE",inactive; negative
same,mutagenic call,"Test System: AMES SALMONELLA TYPHIMURIUM, Strain/Indicator: TA98, Metabolic Activation: S-9",inactive; negative
same,mutagenic call,"Test System: AMES SALMONELLA TYPHIMURIUM, Strain/Indicator: TA100, Metabolic Activation: NONE",inactive; negative
same,mutagenic call,[2],inactive; negative
same,mutagenic call,"Test System: AMES SALMONELLA TYPHIMURIUM, Strain/Indicator: TA100, Metabolic Activation: RAT, LIVER, S-9, SODIUM PHENOBARBITAL, Method: STANDARD PLATE",inactive; negative
same,mutagenic call,"Test System: AMES SALMONELLA TYPHIMURIUM, Strain/Indicator: TA100, Metabolic Activation: S-9",inactive; negative
same,mutagenic call,"Test System: E. COLI, Strain/Indicator: WP2, Metabolic Activation: NONE",inactive; negative
same,mutagenic call,"Test System: E. COLI, Strain/Indicator: WP2, Metabolic Activation: RAT, LIVER, S-9, SODIUM PHENOBARBITAL, Method: STANDARD PLATE",inactive; negative
same,mutagenic call,"Test System: E. COLI, Strain/Indicator: WP2, Metabolic Activation: S-9",inactive; negative
same,mutagenic call,"Test System: E. COLI, Strain/Indicator: WP2 UVRA, Metabolic Activation: NONE",inactive; negative
same,mutagenic call,"Test System: E. COLI, Strain/Indicator: WP2 UVRA, Metabolic Activation: RAT, LIVER, S-9, SODIUM PHENOBARBITAL, Method: STANDARD PLATE",inactive; negative
same,mutagenic call,"Test System: E. COLI, Strain/Indicator: WP2 UVRA, Metabolic Activation: S-9",inactive; negative

# — PubChem BioAssay AID1259407 (Chemical Carcinogenesis Research Information System (CCRIS), 2018)
